Measured values reported in patent US20140213506A1, “THYMOSIN ALPHA PEPTIDE FOR PREVENTING, REDUCING THE SEVERITY OF, AND TREATING INFECTION” (priority 2011, published 2014).
No end group written: not given here.

Key:
[1] = TA1 0.3-1.2 mg/kg/dose i.p. with Fluvirin
[2] = TA1 0.28 or 0.57 mg/kg s.c. with vaccine
Experimental: The vaccine (either Agrippal influPozzi seasonal vaccine, non-adjuvanted, or Fluad, MF-59 adjuvanted) was administered via intramuscular injection to the right leg at a full human dose of 0.5 mL. TA1 (0.285 or 0.570 mg/kg/dose) was administered by the subcutaneous route at a dose volume that, using a scaling factor for ferret/human dosing, corresponding to approximate human doses of 3.2 or 6.4 mg/kg. Animals were observed twice daily for mortality, general health, and both local and systemic signs of toxicity and illness as well as behavior under the responsibility of a professional veterinarian. Body weights were recorded prior to dosing only.

[3] = cited from earlier work
[4] = cited from earlier work; remark: listed apart in the source
[5] = doses as high as 800 times the recommended human dose; cited from earlier work

In the case of “Ac-SDAAVDTSSEITTKDLKEKKEVVEEAEN [TA1, (N-acetyl)-Ser-Asp-Ala-Ala-Val-Asp-Thr-Ser-Ser-Glu-11e-Thr-Thr-Lys-Asp-Leu-Lys-Glu-Lys-Lys-Glu-Val-Val-Glu-Glu-Ala-Glu-Asn-OH]”, the “clinical/cageside observations and body weight effects” value [1] is reported as “no test article-related clinical/cageside observations or body weight effects”, the survival [1] is reported as “All animals survived until scheduled termination” and the “safety and tolerability, cage-side observations” value [2] is reported as “safe and well-tolerated”. The “worsening of side effects in combination” value ([3]; TA1 combined with other agents such as interferon and chemotherapy) was “Nor has there been any worsening of side effects”, the drug-related side effects ([3]; more than 3,000 patients (adults, elderly, children; hepatitis B and C, primary immunodeficiency, cancers)) was “virtually no drug-related side effects” and the Peak plasma levels ([4]; after injection of 3.2 mg of TA1 (about 40 μg/kg)) was “approximately 100 ng/ml”. The “half-life of TA1 in the circulation” value ([4]; in vivo) was “about 2 hours”, the plasma half-life ([4]; subcutaneously injected TA1) was “about two” and the adverse clinical signs [5] was “no evidence of adverse clinical signs”.
